Ends that are not written are not given here.
What was measured:
[1] = biological target: C. glabrata mating receptor (Cg.Ste2) (Candida glabrata, UniProt Q6FLY8); assay: cell-based
Le.Ste2 mating receptor = Le.Ste2 mating receptor (Lodderomyces elongisporus, UniProt A5E1D9); assay: cell-based
Le.Ste2 mating receptor, sequence (A5E1D9 entry or part of it): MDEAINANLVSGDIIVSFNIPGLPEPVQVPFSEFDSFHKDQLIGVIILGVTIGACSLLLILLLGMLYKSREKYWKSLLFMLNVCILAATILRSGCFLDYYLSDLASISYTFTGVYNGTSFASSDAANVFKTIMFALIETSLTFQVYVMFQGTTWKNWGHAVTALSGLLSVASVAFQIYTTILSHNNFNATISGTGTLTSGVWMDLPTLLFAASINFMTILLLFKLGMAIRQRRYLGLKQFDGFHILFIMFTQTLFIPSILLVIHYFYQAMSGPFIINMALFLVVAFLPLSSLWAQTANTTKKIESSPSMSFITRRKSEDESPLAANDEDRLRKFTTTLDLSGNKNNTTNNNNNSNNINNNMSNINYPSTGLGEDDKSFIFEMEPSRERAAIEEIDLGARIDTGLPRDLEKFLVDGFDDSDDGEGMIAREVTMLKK

C. glabrata mating receptor (Cg.Ste2), sequence (Q6FLY8 entry or part of it): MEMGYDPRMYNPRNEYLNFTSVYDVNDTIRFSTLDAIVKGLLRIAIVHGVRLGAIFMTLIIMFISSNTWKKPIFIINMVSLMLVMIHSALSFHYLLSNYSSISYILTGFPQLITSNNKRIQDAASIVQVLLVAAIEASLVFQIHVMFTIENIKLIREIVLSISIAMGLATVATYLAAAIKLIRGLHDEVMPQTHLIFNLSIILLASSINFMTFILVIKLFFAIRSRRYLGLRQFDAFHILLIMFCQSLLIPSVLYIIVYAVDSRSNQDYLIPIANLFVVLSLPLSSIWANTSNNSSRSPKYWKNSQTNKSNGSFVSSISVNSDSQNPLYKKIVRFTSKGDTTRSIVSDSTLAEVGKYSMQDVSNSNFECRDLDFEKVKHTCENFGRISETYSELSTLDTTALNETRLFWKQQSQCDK

| Sequence | EC50 [1] [µM] | EC50 (Le.Ste2 mating receptor) [µM] |
| --- | --- | --- |
| WHWVRLRKGQGLF [Cg – Candida glabrata] | 14 |  |
| WMWTRYGRFSPV [Le – Lodderomyces elongisporus] |  | 0.054 |

Reference: PMC5489263 (Science Advances, 2017)
